Counter-ions that a name gives are not always drawn.

In one test the target is T1, IRAK4 (Homo sapiens, UniProt Q9NWZ3).
T1 sequence (Q9NWZ3 1-460): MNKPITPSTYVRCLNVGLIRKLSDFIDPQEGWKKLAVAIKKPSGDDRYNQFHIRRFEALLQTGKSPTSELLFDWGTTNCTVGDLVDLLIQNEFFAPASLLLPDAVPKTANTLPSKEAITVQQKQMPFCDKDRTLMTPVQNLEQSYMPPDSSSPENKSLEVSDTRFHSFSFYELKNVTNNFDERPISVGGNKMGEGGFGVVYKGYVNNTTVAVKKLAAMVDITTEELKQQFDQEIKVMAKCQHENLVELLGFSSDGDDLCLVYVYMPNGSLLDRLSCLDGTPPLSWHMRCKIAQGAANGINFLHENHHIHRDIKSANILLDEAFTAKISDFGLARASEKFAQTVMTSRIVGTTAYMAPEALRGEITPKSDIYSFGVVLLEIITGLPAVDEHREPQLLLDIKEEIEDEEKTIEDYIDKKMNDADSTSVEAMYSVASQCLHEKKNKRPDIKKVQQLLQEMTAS
As to the kind of experiment: biochemical.
Details: not given
As usually defined, the IC50 is the concentration that inhibits the measured activity by half. The compound `CC(C)COc1cc2nc(C34COC(C)(C3)C4)cn2cc1C(=O)Nc1cccn(C(F)F)c1=O` [Example 453, N-(1-(difluoromethyl)-2-oxo-1,2-dihydropyridin-3-yl)-7-isobutoxy-2-(1-methyl-2-oxabicyclo[2.1.1]hexan-4-yl)imidazo[1,2-a]pyridine-6-carboxamide] had an IC50 of 0.0007 µM.
Compound `CC12CC(c3cn4cc(C(=O)Nc5cccn(C(F)F)c5=O)c(OC5CCCC5)cc4n3)(CO1)C2` [Example 457, 7-(Cyclopentyloxy)-N-(1-(difluoromethyl)-2-oxo-1,2-dihydropyridin-3-yl)-2-(1-methyl-2-oxabicyclo[2.1.1]hexan-4-yl)imidazo[1,2-a]pyridine-6-carboxamide] had an IC50 of 0.0002 µM.
Same read-out and setting: in the case of `CCc1ncsc1NC(=O)c1cn2cc(C34CCC(C)(C3)OC4)nc2cc1OC(C)C` (centres unmarked) [Example 511, N-(4-ethylthiazol-5-yl)-7-isopropoxy-2-(1-methyl-2-oxabicyclo[2.2.1]heptan-4-yl)imidazo[1,2-a]pyridine-6-carboxamide] it was 0.0042 µM.
On the same count and under the same terms, with `COc1cccc(NC(=O)c2cn3cc(C4CC4)nc3cc2OC2CCC2)n1` [Example 463, 7-Cyclobutoxy-2-cyclopropyl-N-(6-methoxypyridin-2-yl)imidazo[1,2-a]pyridine-6-carboxamide] the figure was 0.0057 µM; with `COc1cc2nc(C3CCOCC3)cn2cc1C(=O)Nc1cccnc1OC` [Example 193], 0.0027 µM; with `CC(C)Oc1nc(C(=O)Nc2ccn(C)n2)cn2cc(C34CCC(C)(C3)OC4)nc12` (centres unmarked) [Example 240], 0.0023 µM.
Still for that read-out and setting: in the case of `Cn1ccc(NC(=O)c2cn3cc(C45CCC(C)(C4)OC5)nc3cc2OC2CCC2)n1` (centres unmarked) [Example 561, 7-Cyclobutoxy-N-(1-methyl-1H-pyrazol-3-yl)-2-(1-methyl-2-oxabicyclo[2.2.1]heptan-4-yl)imidazo[1,2-a]pyridine-6-carboxamide] it was 0.0014 µM; in that of `COc1cc2nc(C3CCOCC3)cn2cc1C(=O)Nc1ccn(C2CCCC2)n1` [Example 191], 0.27 µM; in that of `CC(C)Oc1cc2nc([C@@]34CC[C@@](C)(C3)OC4)cn2cc1C(=O)Nc1cnn2cccnc12` (single isomer, unassigned) [Example 615], 0.0002 µM.
Turning to `C[C@]12CC[C@](c3cn4cc(C(=O)Nc5cccc(C(F)F)n5)cc(OC(F)F)c4n3)(CO1)C2` (single isomer, unassigned) [Example 585], the half-maximal inhibitory concentration (IC50) was found to be 0.0115 µM. This IC50 lies about 57-fold higher than the previous one.
The compound `CC(C)Oc1cc2nc(C34CCC(C)(C3)OC4)cn2cc1C(=O)Nc1nc(C(F)(F)F)cs1` (centres unmarked) [Example 503, 7-Isopropoxy-2-(1-methyl-2-oxabicyclo[2.2.1]heptan-4-yl)-N-(4-(trifluoromethyl)thiazol-2-yl)imidazo[1,2-a]pyridine-6-carboxamide] yielded an IC50 of 0.0055 µM.
On the same count and under the same terms, with `CCn1cccc(NC(=O)c2cn3cc(C4CC4)nc3cc2OC(C)C)c1=O` [Example 480, 2-Cyclopropyl-N-(1-ethyl-2-oxo-1,2-dihydropyridin-3-yl)-7-isopropoxyimidazo[1,2-a]pyridine-6-carboxamide] the figure was 0.0075 µM; with `Cn1cccc(NC(=O)c2cn3cc(C45COC(C)(C4)C5)nc3cc2OC2CCC2)c1=O` [Example 424, 7-Cyclobutoxy-N-(1-methyl-2-oxo-1,2-dihydropyridin-3-yl)-2-(1-methyl-2-oxabicyclo[2.1.1]hexan-4-yl)imidazo[1,2-a]pyridine-6-carboxamide], 0.0007 µM; with `COc1cc2nc(C3CCOCC3)cn2cc1C(=O)Nc1ccc(C)n(C)c1=O` [Example 182], 0.559 µM.
On the same count and under the same terms, in the case of `CC(C)Oc1c(C(=O)Nc2cnn3cccnc23)cn2cc(C34COC(C)(C3)C4)nc2c1F` [Example 302, 8-Fluoro-7-isopropoxy-2-(1-methyl-2-oxabicyclo[2.1.1]hexan-4-yl)-N-(pyrazolo[1,5-a]pyrimidin-3-yl)imidazo[1,2-a]pyridine-6-carboxamide] it was 0.0077 µM; in that of `CC(C)Oc1cc2nc(C3CC3)cn2cc1C(=O)Nc1cccc(OCC(F)F)n1` [Example 482, 2-Cyclopropyl-N-(6-(2,2-difluoroethoxy)pyridin-2-yl)-7-isopropoxyimidazo[1,2-a]pyridine-6-carboxamide], 0.0067 µM; in that of `CC(C)Oc1nc2nc(C34CCOC(C)(C3)C4)cn2cc1C(=O)Nc1cccc(C(F)F)n1` [Example 236], 0.0002 µM.
Still for that read-out and setting: with `Cc1cnc2c(NC(=O)c3cn4cc([C@]56CC[C@](C)(C5)OC6)nc4nc3OC(C)C)cnn2c1` (single isomer, unassigned) [Example 617] the figure was 0.0006 µM; with `CC1(C)CC(Oc2cc3nc(C4CC4)cn3cc2C(=O)Nc2cccn(C(F)F)c2=O)C1` [Example 460, 2-Cyclopropyl-N-(1-(difluoromethyl)-2-oxo-1,2-dihydropyridin-3-yl)-7-(3,3-dimethylcyclobutoxy)imidazo[1,2-a]pyridine-6-carboxamide], 0.0099 µM; with `CCOc1nc(C(=O)Nc2cccnc2OC(F)F)cn2cc(C34COC(C)(C3)C4)nc12` [Example 492, N-(2-(difluoromethoxy)pyridin-3-yl)-8-ethoxy-2-(1-methyl-2-oxabicyclo[2.1.1]hexan-4-yl)imidazo[1,2-a]pyrazine-6-carboxamide], 0.0016 µM.
In the case of `CCOc1nc(C(=O)Nc2cccc3c2CCC3)cn2cc(C3CCOCC3)nc12` [Example 211], half-maximal inhibition (IC50) required 0.0116 µM.
The compound `Cc1cnc2c(NC(=O)c3cn4cc([C@]56CO[C@H](CCO5)C6)nc4nc3OC(C)C)cnn2c1` (single isomer, unassigned) [Example 647] displayed an IC50 of 0.0013 µM.
Still for that read-out and setting: in the case of `CCOc1nc(C(=O)Nc2cccnc2OC)cn2cc(C3CCOC3)nc12` (centres unmarked) [Example 273, 8-Ethoxy-N-(2-methoxypyridin-3-yl)-2-(tetrahydrofuran-3-yl)imidazo[1,2-a]pyrazine-6-carboxamide] it was 0.0047 µM; in that of `CC(C)Oc1nc2nc(C34COC(C)(C3)C4)cn2cc1C(=O)Nc1ccn(C(F)(F)F)n1` [Example 362, 7-Isopropoxy-2-(1-methyl-2-oxabicyclo[2.1.1]hexan-4-yl)-N-(1-(trifluoromethyl)-1H-pyrazol-3-yl)imidazo[1,2-a]pyrimidine-6-carboxamide], 0.0082 µM.
Still for that read-out and setting: in the case of `CC(C)Oc1cc2nc(C3COCCO3)cn2cc1C(=O)Nc1cnn2cccnc12` (centres unmarked) [Example 331, 2-(1,4-Dioxan-2-yl)-7-isopropoxy-N-(pyrazolo[1,5-a]pyrimidin-3-yl)imidazo[1,2-a]pyridine-6-carboxamide] it was 0.002 µM; in that of `CC(C)Oc1cc2nc(C34CCC(C)(C3)OC4)cn2cc1C(=O)Nc1nccs1` (centres unmarked) [Example 512, 7-Isopropoxy-2-(1-methyl-2-oxabicyclo[2.2.1]heptan-4-yl)-N-(thiazol-2-yl)imidazo[1,2-a]pyridine-6-carboxamide], 0.009 µM; in that of `COc1cc2nc(C3CCOCC3)cn2cc1C(=O)Nc1ccn(C2CC2(F)F)n1` (centres unmarked) [Example 197], 0.166 µM.
The same measure, in the same setting: with `CC(C)Oc1nc2nc(C34COC(C)(C3)C4)cn2cc1C(=O)Nc1cccc(F)c1Cl` [Example 399, N-(2-chloro-3-fluorophenyl)-7-isopropoxy-2-(1-methyl-2-oxabicyclo[2.1.1]hexan-4-yl)imidazo[1,2-a]pyrimidine-6-carboxamide] the figure was 0.003 µM; with `CC12CC(c3cn4cc(C(=O)Nc5ccn(C(F)F)n5)c(OCC5CC5)nc4n3)(CO1)C2` [Example 639, 7-(Cyclopropylmethoxy)-N-(1-(difluoromethyl)-1H-pyrazol-3-yl)-2-(1-methyl-2-oxabicyclo[2.1.1]hexan-4-yl)imidazo[1,2-a]pyrimidine-6-carboxamide], 0.0181 µM.

The test is the same for the next values; noted with them: IRAK4 Biochemical Assay (1 mM ATP, 2 h) IC50 (μM), 1 mM ATP, 2 h, 100 pM IRAK4.
In the case of `CC(C)Oc1nc2nc(C34CCC(C)(CC3)OC4)cn2cc1C(=O)Nc1cccc(C(F)F)n1` [Example 383, N-(6-(difluoromethyl)pyridin-2-yl)-7-isopropoxy-2-(1-methyl-2-oxabicyclo[2.2.2]octan-4-yl)imidazo[1,2-a]pyrimidine-6-carboxamide], the midpoint of inhibition, the IC50, lay at 0.0001 µM.
Still for that read-out and setting: in the case of `CCOc1cc2nc(C3CN(CC(F)F)C3)cn2cc1C(=O)Nc1cccc(C(F)F)n1` [Example 90] it was 0.0015 µM; in that of `O=C(Nc1cccc(C(F)F)n1)c1cc(OC(F)F)c2nc(C3CCOCC3)cn2c1` [Example 63, 8-(Difluoromethoxy)-N-(6-(difluoromethyl)pyridin-2-yl)-2-(tetrahydro-2H-pyran-4-yl)imidazo[1,2-a]pyridine-6-carboxamide trifluoroacetate], 0.0078 µM; in that of `CCOc1nc(C(=O)Nc2cccnc2OC)cn2cc(C34CCC(C)(C3)OC4)nc12` (centres unmarked) [Example 276, 8-Ethoxy-N-(2-methoxypyridin-3-yl)-2-(1-methyl-2-oxabicyclo[2.2.1]heptan-4-yl)imidazo[1,2-a]pyrazine-6-carboxamide trifluoroacetate], 0.0009 µM.
On the same count and under the same terms, in the case of `C[C@@]12CC[C@@](c3cn4cc(C(=O)Nc5ccccn5)nc(OC5CCC5)c4n3)(CO1)C2` (single isomer, unassigned) [Example 622] it was 0.004 µM; in that of `CC(C)Oc1cc2nc(C(C)(F)F)cn2cc1C(=O)Nc1cccc(C(F)F)n1` [Example 98, 2-(1,1-Difluoroethyl)-N-(6-(difluoromethyl)pyridin-2-yl)-7-isopropoxyimidazo[1,2-a]pyridine-6-carboxamide], 0.0038 µM.

The values above are taken from US20230087118A1, “IMIDAZO[1,2-a][sequence] DERIVATIVES AND THEIR USE IN THE TREATMENT OF DISEASE” (priority 2019, published 2023).
